# Measurements as given in ChEMBL document CHEMBL1139830, “Glycosidic juvenogens: derivatives bearing alpha,beta-unsaturated ester functionalities” (2007).
# The source made the active and inactive calls. No cut-off for these calls is given here.
# System: Pyrrhocoris apterus
# Test: Juvenilizing effect assessed as inhibition of metamorphosis per individual in red firebug by drinking assay
# Type: functional
Structure (SMILES),ID50,Activity
CCOC(=O)/C=C(/C)COc1ccc(C[C@@H]2CCCC[C@@H]2O[C@@H]2O[C@H](CO)[C@@H](O)[C@H](O)[C@H]2O)cc1,1.1 µg,
CCOC(=O)/C=C(\C)COc1ccc(C[C@H]2CCCC[C@@H]2O)cc1,0.32 µg,
CCOC(=O)/C=C(/C)COc1ccc(C[C@H]2CCCC[C@@H]2O)cc1 (stereo in doubt; Z-2a),,inactive
CCOC(=O)/C=C(\C)COc1ccc(C[C@@H]2CCCC[C@@H]2O)cc1,0.05 µg,
CCOC(=O)/C=C(\C)COc1ccc(C[C@@H]2CCCC[C@@H]2O[C@@H]2O[C@H](CO)[C@@H](O)[C@H](O)[C@H]2O)cc1,0.0021 µg,
CCOC(=O)/C=C(\C)COc1ccc(C[C@H]2CCCC[C@@H]2O[C@@H]2O[C@H](CO)[C@H](O)[C@H](O)[C@H]2O)cc1,1.9 µg,
CCOC(=O)/C=C(\C)COc1ccc(C[C@H]2CCCC[C@@H]2O[C@@H]2O[C@H](CO)[C@@H](O)[C@H](O)[C@H]2O)cc1,1.3 µg,
CCOC(=O)/C=C(/C)COc1ccc(C[C@@H]2CCCC[C@@H]2O)cc1,18 µg,
CCOC(=O)/C=C(\C)COc1ccc(C[C@@H]2CCCC[C@@H]2O[C@@H]2O[C@H](CO)[C@H](O)[C@H](O)[C@H]2O)cc1,0.11 µg,
CCOC(=O)/C=C(/C)COc1ccc(C[C@H]2CCCC[C@@H]2O[C@@H]2O[C@H](CO)[C@@H](O)[C@H](O)[C@H]2O)cc1 (stereo in doubt; Z-14b),,inactive
CCOC(=O)/C=C(/C)COc1ccc(C[C@H]2CCCC[C@@H]2O)cc1 (stereo in doubt; Z-2b),,inactive
CCOC(=O)/C=C(/C)COc1ccc(C[C@@H]2CCCC[C@@H]2O[C@@H]2O[C@H](CO)[C@H](O)[C@H](O)[C@H]2O)cc1,2.3 µg,
CCOC(=O)/C=C(/C)COc1ccc(C[C@H]2CCCC[C@@H]2O[C@@H]2O[C@H](CO)[C@H](O)[C@H](O)[C@H]2O)cc1,3 µg,
CCOC(=O)/C=C(/C)COc1ccc(C[C@H]2CCCC[C@@H]2O[C@@H]2O[C@H](CO)[C@@H](O)[C@H](O)[C@H]2O)cc1 (stereo in doubt; Z-14a),,inactive
